Data as given in the OPERA property sets (Mansouri et al. 2018).

details: not given

In order of falling boiling point:
1. CCCCOC(=O)c1ccccc1C(=O)OCc1ccccc1  370 °C
2. CC1CCCCCCCCCCCCC(=O)C1 (stereo unspecified)  329 °C
3. O=C(Cl)c1ccc2ccccc2c1  305 °C
4. Nc1ccccc1-c1ccccc1  299 °C
5. COC(=O)c1cccc(I)c1  277 °C
6. OCCCCCCCO  262 °C
7. CCCCCN(CCCCC)CCCCC  242 °C
8. ClC1=C(Cl)C(Cl)(Cl)C(Cl)=C1Cl  239 °C
9. CCC(=O)OCCc1ccccc1  238 °C
10. Cc1ccc(N)cc1C  228 °C
11. BrC(Br)=C(Br)Br  226 °C
12. COC(=O)C=C(Cl)C(=O)OC  224 °C
13. Cc1ccc(C#N)cc1  217 °C
14. OCCCO  214 °C
15. CC1=CCC(O)(C(C)C)CC1 (stereo unspecified)  209 °C
16. Cc1cccc2c1C=CC2  209 °C
17. CC(C)(O)C#CC(C)(C)O  205 °C
18. Clc1ccccc1Br  204 °C
19. CC(=O)CCc1ccco1  203 °C
20. c1ccc2nsnc2c1  203 °C
21. Cc1ccc2c(c1)CCC2  202 °C
22. CCCCCCCCBr  200 °C
23. C[C@@H]1C=Cc2ccccc21  199 °C
24. CCC(O)C(C)O (stereo unspecified)  188 °C
25. CC(CCl)OC(C)CCl (stereo unspecified)  187 °C
26. FC(Cl)(Cl)c1ccccc1  179 °C
27. CCCCCCCC(C)C  167 °C
28. C=C1CCC2CC1C2(C)C (stereo unspecified)  166 °C
29. CC1CCCCS1 (stereo unspecified)  153 °C
30. CCCC(C)CO (stereo unspecified)  149 °C
31. CCCC(Cl)CCl (stereo unspecified)  148 °C
32. C=CC(=O)OCCCC  145 °C
33. CCN(O)CC  133 °C
34. C=CCCC(C)=O  130 °C
35. O=CCCCl  130 °C
36. C[Si](C)(C)N[Si](C)(C)C  125 °C
37. CC1CCCC(C)C1 (stereo unspecified)  122 °C
38. C=C(C)CCC(C)C  112 °C
39. CCC#CCCC  107 °C
40. FC(F)(F)Oc1ccccc1  102 °C
41. COCC(F)(F)C(F)C(F)(F)F (stereo unspecified)  87.5 °C
42. CC1C=CCC1 (stereo unspecified)  64.9 °C
43. FC(Cl)C(F)(F)C(F)(F)Cl (stereo unspecified)  56.1 °C
44. CCC(C)(C)C  49.7 °C
45. C1COC1  47.6 °C
46. CCBr  38.5 °C
47. C#CC(C)(C)C  37.7 °C
48. FC(Cl)=C(F)Cl  21.1 °C

In order of falling log10 vapour pressure (mmHg):
1. FC(Cl)=C(F)Cl  2.95
2. CCBr  2.67
3. C1COC1  2.51
4. CCC(C)(C)C  2.5
5. FC(Cl)C(F)(F)C(F)(F)Cl (stereo unspecified)  2.46
6. COCC(F)(F)C(F)C(F)(F)F (stereo unspecified)  1.79
7. CC1CCCC(C)C1 (stereo unspecified)  1.3
8. C[Si](C)(C)N[Si](C)(C)C  1.14
9. C=CCCC(C)=O  1.02
10. C=CC(=O)OCCCC  0.737
11. CCN(O)CC  0.526
12. C=C1CCC2CC1C2(C)C (stereo unspecified)  0.467
13. CCCC(C)CO (stereo unspecified)  0.283
14. CCCCCCCC(C)C  0.276
15. CC(CCl)OC(C)CCl (stereo unspecified)  -0.252
16. CCCCCCCCBr  -0.418
17. Cc1ccc(C#N)cc1  -0.504
18. ClC1=C(Cl)C(Cl)(Cl)C(Cl)=C1Cl  -1.22
19. OCCCO  -1.36
20. Cc1ccc(N)cc1C  -1.55
21. CN(C)P(=O)(OP(=O)(N(C)C)N(C)C)N(C)C  -3
22. O=Cc1ccc(O)c([N+](=O)[O-])c1  -3.05
23. Clc1cc(Cl)c(Cl)c(Oc2ccccc2)c1  -3.66
24. CCCCOC(=O)c1ccccc1C(=O)OCc1ccccc1  -5.08
25. CCNc1nc(NC(C)C)nc(OC)n1  -5.54
26. COc1cc(OC)cc(C(=O)O)c1  -6.86
27. CC(C)c1ccc(NC(=O)N(C)C)cc1  -7.61
28. CC(C)C(C(=O)OC(C#N)c1cccc(Oc2ccccc2)c1)c1ccc(Cl)cc1 (stereo unspecified)  -8.82

With O=C(Nc1cccc(N(CCO)CCO)c1)c1ccccc1 the ready biodegradability was “not readily biodegradable”.
In the case of CC(CCl)OC(C)CCl (stereo unspecified), the ready biodegradability was “not readily biodegradable”.
For CC(C)(C)c1cc(CO)cc(C(C)(C)C)c1O, the ready biodegradability was “not readily biodegradable”.
With C=CCCCCO the ready biodegradability was “readily biodegradable”.
For CCCCCCCCCC[N+](C)(C)Cc1ccccc1, the ready biodegradability was “not readily biodegradable”.
With CCBr the ready biodegradability was “not readily biodegradable”.
In the case of C=CC(=O)OCCCC, the ready biodegradability was “readily biodegradable”.
With Cc1ccc(N)cc1C the ready biodegradability was “readily biodegradable”.
With Nc1ccccc1-c1ccccc1 the ready biodegradability was “not readily biodegradable”.
For ClC1=C(Cl)C(Cl)(Cl)C(Cl)=C1Cl, the ready biodegradability was “not readily biodegradable”.
In the case of CCCCOC(=O)c1ccccc1C(=O)OCc1ccccc1, the ready biodegradability was “readily biodegradable”.
For CCN(O)CC, the ready biodegradability was “not readily biodegradable”.
With O=C(O)C=Cc1ccccc1 the ready biodegradability was “readily biodegradable”.

In order of falling log10 Koc (L/kg):
1. CC(C)C(C(=O)OC(C#N)c1cccc(Oc2ccccc2)c1)c1ccc(Cl)cc1 (stereo unspecified)  3.73
2. CCCCOC(=O)c1ccccc1C(=O)OCc1ccccc1  3.72
3. Cc1cc(S(=O)(=O)c2ccccc2)ccc1NS(=O)(=O)C(F)(F)F  3.08
4. CCNc1nc(NC(C)C)nc(OC)n1  2.64
5. CC(CCl)OC(C)CCl (stereo unspecified)  1.67

In order of rising melting point:
1. FC(Cl)=C(F)Cl  -130 °C
2. CCC#CCCC  -130 °C
3. CCBr  -119 °C
4. CCC(C)(C)C  -99 °C
5. CC(CCl)OC(C)CCl (stereo unspecified)  -97 °C
6. C1COC1  -97 °C
7. C#CC(C)(C)C  -78.2 °C
8. CCCCCCCC(C)C  -74.6 °C
9. C=CC(=O)OCCCC  -64.6 °C
10. C=C1CCC2CC1C2(C)C (stereo unspecified)  -61.2 °C
11. CC1CCCCS1 (stereo unspecified)  -58 °C
12. CCCCCCCCBr  -55 °C
13. FC(F)(F)Oc1ccccc1  -50 °C
14. O=C1CCCCCC1=O  -40 °C
15. O=C(OCC1CCC2OC2C1)C1CCC2OC2C1 (stereo unspecified)  -37 °C
16. FC(Cl)(Cl)c1ccccc1  -26.8 °C
17. OCCCO  -26.7 °C
18. Clc1ccccc1Br  -12.3 °C
19. ClC1=C(Cl)C(Cl)(Cl)C(Cl)=C1Cl  -9 °C
20. O=CCCCCC=O  -8 °C
21. O=c1cccccc1  -7 °C
22. CCCC(=O)c1ccccc1O  10 °C
23. CCN(O)CC  10 °C
24. CN(C)P(=O)(OP(=O)(N(C)C)N(C)C)N(C)C  17 °C
25. OCCCCCCCO  22.5 °C
26. OC1CCCCCCC1  25.1 °C
27. Oc1ccc(S)cc1  29.5 °C
28. Cc1ccc(C#N)cc1  29.5 °C
29. CC=CC=CCO  30.5 °C
30. CCCCCCCOO  35.5 °C
31. O=C(O)CCCCCCCBr  38.5 °C
32. c1ccc2nsnc2c1  43 °C
33. Cc1ccc(N)cc1C  51 °C
34. CCOC(=O)c1cn2nc(OP(=S)(OCC)OCC)cc2nc1C  51 °C
35. O=C(Cl)c1ccc2ccccc2c1  51 °C
36. Nc1ccccc1-c1ccccc1  51 °C
37. CC(C)C(C(=O)OC(C#N)c1cccc(Oc2ccccc2)c1)c1ccc(Cl)cc1 (stereo unspecified)  52.2 °C
38. CCCCOC(N)=O  53 °C
39. COC(=O)c1cccc(I)c1  54.5 °C
40. BrC(Br)=C(Br)Br  56.5 °C
41. OC(c1ccccc1)c1ccc(Cl)cc1 (stereo unspecified)  60.8 °C
42. c1ccc(CSSCc2ccccc2)cc1  71.5 °C
43. COc1cc(C(=O)OCCCN(C)CCN(C)CCCOC(=O)c2cc(OC)c(OC)c(OC)c2)cc(OC)c1OC  76 °C
44. CCc1ssc(=O)c1-c1ccccc1  82 °C
45. COc1ccc(C[C@H]2c3cc(OC)c(OC)cc3CCN2C)cc1OC  89 °C
46. CC(NNC(=O)c1ccccc1)c1ccccc1 (stereo unspecified)  93.5 °C
47. CC(C)(O)C#CC(C)(C)O  95 °C
48. CCCCSP(SCCCC)SCCCC  100 °C
49. CC[C@H]1OC(=O)[C@H](C)[C@@H](O[C@H]2C[C@@](C)(OC)[C@@H](O)[C@H](C)O2)[C@H](C)[C@@H](O[C@@H]2O[C@H](C)C[C@H](N(C)C)[C@H]2O)[C@](C)(O)C[C@@H](C)CN(C)[C@H](C)[C@@H](O)[C@]1(C)O  114 °C
50. O=C1c2ccccc2C(=O)N1Cc1ccccc1  116 °C
51. Nc1ccc(C(=O)c2ccccc2)cc1  122 °C
52. COc1cc2c(cc1OC)C1CC(=O)C(CC(C)C)CN1CC2 (stereo unspecified)  128 °C
53. Ic1ccc(I)c(I)c1I  136 °C
54. O=C1C(CCS(=O)c2ccccc2)C(=O)N(c2ccccc2)N1c1ccccc1 (stereo unspecified)  136 °C
55. CCC(=O)c1ccc(N)cc1  140 °C
56. CC(C)(C)c1cc(CO)cc(C(C)(C)C)c1O  140 °C
57. O=Cc1ccc(O)c([N+](=O)[O-])c1  141 °C
58. COc1c(C)c2c(c(O)c1C/C=C(\C)CCC(=O)O)C(=O)OC2  141 °C
59. Cc1cc(S(=O)(=O)c2ccccc2)ccc1NS(=O)(=O)C(F)(F)F  143 °C
60. CC(C)c1ccc(NC(=O)N(C)C)cc1  158 °C
61. O=C1C=CC2(CCC23C=CC(=O)O3)O1 (stereo unspecified)  158 °C
62. O=C(Nc1ccccc1)c1ccccc1  163 °C
63. CC(=O)Nc1c(C)cccc1C  183 °C
64. CN1CCN(C2=Nc3cc(Cl)ccc3Nc3ccccc32)CC1  184 °C
65. COc1cc(OC)cc(C(=O)O)c1  186 °C
66. NS(=O)(=O)c1ccccc1[N+](=O)[O-]  191 °C
67. COc1cc(Cc2cnc(N)nc2N)cc(OC)c1OC  201 °C
68. CC(=O)OCC(=O)[C@@]1(O)CC[C@H]2[C@@H]3C[C@H](C)C4=CC(=O)C=C[C@]4(C)[C@H]3[C@@H](O)C[C@@]21C  206 °C
69. O=C(O)c1ccc(-c2ccccc2)cc1  228 °C
70. CCCOc1ccc2[nH]c(NC(=O)OC)nc2c1  230 °C
71. C[C@@H]1C[C@H]2[C@@H]3CCC4=CC(=O)C=C[C@]4(C)[C@@]3(F)[C@@H](O)C[C@]2(C)[C@@]1(O)C(=O)CO  248 °C
72. CC(=O)OCC(=O)[C@@]12N=C(C)O[C@@H]1C[C@H]1[C@@H]3CCC4=CC(=O)C=C[C@]4(C)[C@H]3[C@@H](O)C[C@@]12C  256 °C
73. CC1(C)CC[C@]2(C(=O)O)CC[C@]3(C)C(=CC[C@@H]4[C@@]5(C)CC[C@H](O)[C@@](C)(C=O)[C@@H]5CC[C@]43C)[C@@H]2C1  275 °C
74. O=C1C(O)=C(O)C(=O)c2ccccc21  282 °C

Compound CCBr has a log10 Koa of 2.11.

In order of rising log10 Henry constant (atm·m³/mol):
1. Cc1ccc(N)cc1C  -5.73
2. ClC1=C(Cl)C(Cl)(Cl)C(Cl)=C1Cl  -1.57

In order of rising log10 biodegradation half-life (days):
1. Cc1ccc2c(c1)CCC2  0.301
2. CCC(C)(C)C  1.28

same assay, conditions: fish

In order of rising log10 BCF:
1. Cc1ccc(N)cc1C  0.95
2. CC(CCl)OC(C)CCl (stereo unspecified)  1.08
3. CCCCOC(=O)c1ccccc1C(=O)OCc1ccccc1  1.21
4. Nc1ccccc1-c1ccccc1  1.41
5. OC(c1ccccc1)c1ccc(Cl)cc1 (stereo unspecified)  1.79
6. CC(C)C(C(=O)OC(C#N)c1cccc(Oc2ccccc2)c1)c1ccc(Cl)cc1 (stereo unspecified)  2.85
7. COc1cc(Cl)c(Cl)c(Cl)c1  3.09

In order of rising log10 biotransformation half-life (days):
1. CC(CCl)OC(C)CCl (stereo unspecified)  -1.07
2. Nc1ccccc1-c1ccccc1  -1.06
3. CCCCOC(=O)c1ccccc1C(=O)OCc1ccccc1  -1.03
4. Cc1ccc(N)cc1C  -0.99
5. OC(c1ccccc1)c1ccc(Cl)cc1 (stereo unspecified)  -0.89
6. CC(C)C(C(=O)OC(C#N)c1cccc(Oc2ccccc2)c1)c1ccc(Cl)cc1 (stereo unspecified)  0.69
